Patent US11802111B2, “Cyclobutyl amide monoacylglycerol lipase modulators” (Janssen Pharmaceutica NV, priority 2020, dated 2023)

Biological target: human MGL from HeLa cells (Homo sapiens (Human), UniProt Q99685)
Test: MGL in vitro activity assay ([glycerol-1,3-3H]-oleoyl glycerol hydrolysis, activated carbon filtration)
Type: biochemical
Details: 300 nM [Glycerol-1,3-3H]-oleoyl glycerol, one hour
Outline: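 Endogenous human MGL in HeLa cells/homogenates incubated 1 h with test compounds and 300 nM [glycerol-1,3-3H]-oleoyl glycerol. Released 3H-glycerol passing an activated carbon filter counted as activity; screening at 10 μM compound, top IC50 concentration set empirically.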

Chain of human MGL from HeLa cells (Q99685 whole entry): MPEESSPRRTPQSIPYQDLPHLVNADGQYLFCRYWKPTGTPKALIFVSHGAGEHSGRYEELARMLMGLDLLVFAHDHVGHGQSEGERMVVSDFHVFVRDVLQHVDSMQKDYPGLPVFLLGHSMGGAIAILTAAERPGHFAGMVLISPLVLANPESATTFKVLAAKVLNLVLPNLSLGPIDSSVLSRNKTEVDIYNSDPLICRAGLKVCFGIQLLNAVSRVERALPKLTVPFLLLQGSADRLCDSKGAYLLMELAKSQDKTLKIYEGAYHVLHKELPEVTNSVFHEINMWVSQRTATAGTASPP

**Q.** Which IC50 does the source give for C[C@]1(O)C[C@@H](C(=O)N2CC3(CC[C@@H](c4cccc(C5CC5)c4)C3)C2)C1 (stereo in doubt) [Example 59, ((*R)-6-(3-Cyclopropylphenyl)-2-azaspiro[3.4]octan-2-yl)((1s,3*S)-3-hydroxy-3-methylcyclobutyl)methanone] here?
**A.** The IC50 was 37 nM.

**Q.** Which IC50 does the source give for C[C@]1(O)C[C@@H](C(=O)N2CC3(CC[C@H](c4cccc(C5CC5)c4)C3)C2)C1 (stereo in doubt) [Example 60, ((*S)-6-(3-Cyclopropylphenyl)-2-azaspiro[3.4]octan-2-yl)((1s,3*R)-3-hydroxy-3-methylcyclobutyl)methanone] here?
**A.** The IC50 was 25 nM.

**Q.** Which IC50 does the source give for C[C@]1(O)C[C@@H](C(=O)N2CC3(CC[C@@H](c4cccc(C(F)(F)F)c4)C3)C2)C1 (stereo in doubt) [Example 62, ((1s,3*S)-3-Hydroxy-3-methylcyclobutyl)((*R)-6-(3-(trifluoromethyl)phenyl)-2-azaspiro[3.4]octan-2-yl)methanone] here?
**A.** The IC50 was 34 nM.

**Q.** C[C@]1(O)C[C@@H](C(=O)N2CC3(CC[C@H](c4cccc(C(F)(F)F)c4)C3)C2)C1 (stereo in doubt) [Example 63, ((1s,3*R)-3-Hydroxy-3-methylcyclobutyl)((*S)-6-(3-(trifluoromethyl)phenyl)-2-azaspiro[3.4]octan-2-yl)methanone] was tested. Which IC50 did it give?
**A.** The IC50 was 22 nM.

**Q.** Cc1cc([C@@H]2CCC3(C2)CN(C(=O)[C@H]2C[C@@](C)(O)C2)C3)ccc1OC(F)F (stereo in doubt) [Example 73, ((*R)-6-(4-(Difluoromethoxy)-3-methylphenyl)-2-azaspiro[3.4]octan-2-yl)((1s,3*S)-3-hydroxy-3-methylcyclobutyl)methanone] was tested. Which IC50 did it give?
**A.** The IC50 was 8.1 nM.

**Q.** With Cc1cc([C@H]2CCC3(C2)CN(C(=O)[C@H]2C[C@@](C)(O)C2)C3)ccc1OC(F)F (stereo in doubt) [Example 74, ((*S)-6-(4-(Difluoromethoxy)-3-methylphenyl)-2-azaspiro[3.4]octan-2-yl)((1s,3*R)-3-hydroxy-3-methylcyclobutyl)methanone] as the compound, how does the IC50 read?
**A.** Its IC50 is 6.8 nM.

**Q.** With C[C@]1(O)C[C@@H](C(=O)N2CC3(CC[C@H](Cc4cccc(C(F)(F)F)c4)C3)C2)C1 (stereo in doubt) [Example 177, ((1s,3*S)-3-Hydroxy-3-methylcyclobutyl)((*R)-6-(3-(trifluoromethyl)benzyl)-2-azaspiro[3.4]octan-2-yl)methanone] as the compound, how does the IC50 read?
**A.** Its IC50 is 14 nM.

**Q.** C[C@]1(O)C[C@@H](C(=O)N2CC3(CC[C@@H](Cc4cccc(C(F)(F)F)c4)C3)C2)C1 (stereo in doubt) [Example 178, ((1s,3*R)-3-Hydroxy-3-methylcyclobutyl)((*S)-6-(3-(trifluoromethyl)benzyl)-2-azaspiro[3.4]octan-2-yl)methanone] was tested. Which IC50 did it give?
**A.** The IC50 was 11 nM.

**Q.** How did the IC50 turn out when C[C@@H](c1ccccc1)C1CC2(C1)CN(C(=O)[C@H]1C[C@@](C)(O)C1)C2 (stereo in doubt) [Example 310, ((1s,3*S)-3-Hydroxy-3-methylcyclobutyl)(6-((*R)-1-phenylethyl)-2-azaspiro[3.3]heptan-2-yl)methanone] was run?
**A.** Its IC50 is 33 nM.

**Q.** With C[C@H](c1ccccc1)C1CC2(C1)CN(C(=O)[C@H]1C[C@@](C)(O)C1)C2 (stereo in doubt) [Example 311, ((1s,3*R)-3-Hydroxy-3-methylcyclobutyl)(6-((*S)-1-phenylethyl)-2-azaspiro[3.3]heptan-2-yl)methanone] as the compound, how does the IC50 read?
**A.** The IC50 was 77 nM.

**Q.** Which IC50 does the source give for Cc1nc([C@H](C)C2CC3(C2)CN(C(=O)[C@H]2C[C@@](C)(O)C2)C3)ccc1C(F)(F)F (stereo in doubt) [Example 312, ((1s,3*S)-3-Hydroxy-3-methylcyclobutyl)(6-((*R)-1-(6-methyl-5-(trifluoromethyl)pyridin-2-yl)ethyl)-2-azaspiro[3.3]heptan-2-yl)methanone] here?
**A.** Its IC50 is 5.4 nM.

**Q.** With Cc1nc([C@@H](C)C2CC3(C2)CN(C(=O)[C@H]2C[C@@](C)(O)C2)C3)ccc1C(F)(F)F (stereo in doubt) [Example 313, ((1s,3*R)-3-Hydroxy-3-methylcyclobutyl)(6-((*S)-1-(6-methyl-5-(trifluoromethyl)pyridin-2-yl)ethyl)-2-azaspiro[3.3]heptan-2-yl)methanone] as the compound, how does the IC50 read?
**A.** The IC50 was 52 nM.
